“And” between values parts separate entries of the source, which are not always exact repeats. Equal values may be shown once. Inconclusive results are not listed.
Test system: BDF1 mice, M5076 sarcoma s.c., survival/tumor T/C
Experiment: NCI In Vivo Anticancer Drug Screen. Data for tumor model Sarcoma M5076 (subcutaneous) in B6D2F1 (BDF1) mice
Experimental: The antitumor activity of compounds was measured in mice bearing transplantable tumors. Survival or tumor size were measured and the results are expressed as the measurement made in the treated group (T) divided by the measurement made in the vehicle treated control group (C). The tumor model used in this assay is Sarcoma M5076 (subcutaneous) in B6D2F1 (BDF1) mice

## O=C(O)c1ccc(C(=O)O)c(C(=O)O)c1.[NH-]C1CCCCC1[NH-].[Pt+2]
endpoint: median survival time, dose: 0.8 mg/kg/injection, schedule: Q01DX009 (ip), vehicle: sodium bicarbonate, higher = longer survival
  T/C: 101 % of control
endpoint: median survival time, dose: 1.5 mg/kg/injection, schedule: Q01DX009 (ip), vehicle: sodium bicarbonate, higher = longer survival
  T/C: 104 % of control
endpoint: median survival time, dose: 3.0 mg/kg/injection, schedule: Q01DX009 (ip), vehicle: sodium bicarbonate, higher = longer survival
  T/C: 108 % of control
endpoint: median survival time, dose: 6.0 mg/kg/injection, schedule: Q01DX009 (ip), vehicle: sodium bicarbonate, higher = longer survival
  T/C: 112 % of control
endpoint: median survival time, dose: 8.64 mg/kg/injection, schedule: Q04DX005 (ip), vehicle: sodium bicarbonate, higher = longer survival
  T/C: 176 % of control
endpoint: median survival time, dose: 14.4 mg/kg/injection, schedule: Q04DX005 (ip), vehicle: sodium bicarbonate, higher = longer survival
  T/C: 216 % of control
endpoint: median tumor weight (est.), dose: 3.11 mg/kg/injection, schedule: Q04DX005 (ip), vehicle: sodium bicarbonate, higher = larger tumour
  T/C: 14 % of control
endpoint: median tumor weight (est.), dose: 5.18 mg/kg/injection, schedule: Q04DX005 (ip), vehicle: sodium bicarbonate, higher = larger tumour
  T/C: 18 % of control

## Nc1nnc[se]1
endpoint: median survival time, dose: 50.0 mg/kg/injection, schedule: Q04DX003 (ip), vehicle: saline with Tween-80, higher = longer survival
  T/C: 121 % of control
endpoint: median survival time, dose: 100.0 mg/kg/injection, schedule: Q04DX003 (ip), vehicle: saline with Tween-80, higher = longer survival
  T/C: 116 % of control
endpoint: median survival time, dose: 200.0 mg/kg/injection, schedule: Q04DX003 (ip), vehicle: saline with Tween-80, higher = longer survival
  T/C: 124 % of control

## Cc1cc(-c2ccc(NC(=O)Nc3cccc(F)c3)c(C)c2)ccc1NC(=O)Nc1cccc(F)c1
endpoint: median survival time, dose: 50.0 mg/kg/injection, schedule: Q01DX009 (ip), vehicle: saline with Tween-80, higher = longer survival
  T/C: 110 % of control
endpoint: median survival time, dose: 100.0 mg/kg/injection, schedule: Q01DX009 (ip), vehicle: saline with Tween-80, higher = longer survival
  T/C: 102 % of control
endpoint: median survival time, dose: 200.0 mg/kg/injection, schedule: Q01DX009 (ip), vehicle: saline with Tween-80, higher = longer survival
  T/C: 104 % of control
endpoint: median tumor weight (est.), dose: 50.0 mg/kg/injection, schedule: Q01DX009 (ip), vehicle: saline with Tween-80, higher = larger tumour
  T/C: 107 % of control
endpoint: median tumor weight (est.), dose: 100.0 mg/kg/injection, schedule: Q01DX009 (ip), vehicle: saline with Tween-80, higher = larger tumour
  T/C: 84 % of control
endpoint: median tumor weight (est.), dose: 200.0 mg/kg/injection, schedule: Q01DX009 (ip), vehicle: saline with Tween-80, higher = larger tumour
  T/C: 70 % of control

## NC(C/[N+]([O-])=N/O)C(=O)O (stereo unspecified)
endpoint: mean tumor weight, dose: 62.5 mg/kg/injection, schedule: Q02DX011 (ip), vehicle: saline, higher = larger tumour
  T/C: 88 % of control
endpoint: mean tumor weight, dose: 125.0 mg/kg/injection, schedule: Q02DX011 (ip), vehicle: saline, higher = larger tumour
  T/C: 108 % of control
endpoint: mean tumor weight, dose: 250.0 mg/kg/injection, schedule: Q02DX011 (ip), vehicle: saline, higher = larger tumour
  T/C: 42 % of control
endpoint: median survival time, dose: 8.78 mg/kg/injection, schedule: Q01DX010 (ip), vehicle: alkali diluted with saline, higher = longer survival
  T/C: 88 % of control and 90 % of control
endpoint: median survival time, dose: 13.2 mg/kg/injection, schedule: Q01DX010 (ip), vehicle: alkali diluted with saline, higher = longer survival
  T/C: 91 % of control and 93 % of control
endpoint: median survival time, dose: 19.8 mg/kg/injection, schedule: Q01DX010 (ip), vehicle: alkali diluted with saline, higher = longer survival
  T/C: 118 % of control
endpoint: median survival time, dose: 29.6 mg/kg/injection, schedule: Q01DX010 (ip), vehicle: alkali diluted with saline, higher = longer survival
  T/C: 114 % of control and 118 % of control
endpoint: median survival time, dose: 44.4 mg/kg/injection, schedule: Q01DX010 (ip), vehicle: alkali diluted with saline, higher = longer survival
  T/C: 105 % of control and 106 % of control
endpoint: median survival time, dose: 52.7 mg/kg/injection, schedule: Q04DX005 (ip), vehicle: alkali diluted with saline, higher = longer survival
  T/C: 89 % of control and 90 % of control
endpoint: median survival time, dose: 66.7 mg/kg/injection, schedule: Q01DX010 (ip), vehicle: alkali diluted with saline, higher = longer survival
  T/C: 115 % of control and 116 % of control
endpoint: median survival time, dose: 79.0 mg/kg/injection, schedule: Q04DX005 (ip), vehicle: alkali diluted with saline, higher = longer survival
  T/C: 93 % of control
endpoint: median survival time, dose: 119.0 mg/kg/injection, schedule: Q04DX005 (ip), vehicle: alkali diluted with saline, higher = longer survival
  T/C: 123 % of control
endpoint: median survival time, dose: 267.0 mg/kg/injection, schedule: Q04DX005 (ip), vehicle: alkali diluted with saline, higher = longer survival
  T/C: 106 % of control and 112 % of control
endpoint: median survival time, dose: 400.0 mg/kg/injection, schedule: Q04DX005 (ip), vehicle: alkali diluted with saline, higher = longer survival
  T/C: 115 % of control
endpoint: median tumor weight (est.), dose: 50.0 mg/kg/injection, schedule: Q02DX011 (ip), vehicle: alkali diluted with saline, higher = larger tumour
  T/C: 91 % of control
endpoint: median tumor weight (est.), dose: 100.0 mg/kg/injection, schedule: Q02DX011 (ip), vehicle: alkali diluted with saline, higher = larger tumour
  T/C: 66 % of control

## NC(=O)c1cc(N2CC2)c([N+](=O)[O-])cc1[N+](=O)[O-]
endpoint: median survival time, dose: 64.0 mg/kg/injection, schedule: Q01DX001 (ip), vehicle: saline, higher = longer survival
  T/C: 103 % of control (2×) and 97 % of control
endpoint: median survival time, dose: 80.0 mg/kg/injection, schedule: Q01DX001 (ip), vehicle: saline, higher = longer survival
  T/C: 95 % of control
endpoint: median survival time, dose: 100.0 mg/kg/injection, schedule: Q01DX001 (ip), vehicle: saline, higher = longer survival
  T/C: 106 % of control and 110 % of control and 95 % of control
